Laboratory results published in patent publication US20230183193A1, “4-DIFLUOROMETHYL BENZOYL AMIDES WITH HERBICIDAL ACTION” (BAYER CROPSCIENCE AKTIENGESELLSCHAFT, priority 2017, published 2023).

Assays:
Abutilon theophrasti [1] = test: Pre-emergence herbicidal action, ABUTH; assay type: in vivo
Summary of the method: (§1)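 Percent herbicidal activity rated by eye 3 weeks after pre-emergence soil-surface application, compared with untreated pots. Seeds sat under sandy loam; sprays carried 0.2% wetting agent.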

Alopecurus myosuroides [2] = test: Pre-emergence herbicidal action, ALOMY; assay type: in vivo
Summary of the method: as §1

Amaranthus retroflexus [3] = test: Pre-emergence herbicidal action, AMARE; assay type: in vivo
Summary of the method: as §1

Avena fatua [4] = test: Pre-emergence herbicidal action, AVEFA; assay type: in vivo
Summary of the method: as §1

Cyperus serotinus = test: Pre-emergence herbicidal action, CYPES; assay type: in vivo
Summary of the method: as §1

Matricaria inodora = test: Pre-emergence herbicidal action, MATIN; assay type: in vivo; conditions: for Herbicidal efficacy against MATIN: Table K
Summary of the method: as §1

Polygonum convolvulus = test: Pre-emergence herbicidal action, POLCO; assay type: in vivo
Excerpt: (§2) 1. Pre-Emergence Herbicidal Action Against Harmful Plants Seeds of monocotyledonous and dicotyledonous weed plants and crop plants are laid out in sandy loam soil in wood-fiber pots and covered with soil. The compounds of the invention, formulated in the form of wettable powders (WP) or as emulsion concentrates (EC), are then applied to the surface of the covering soil in the form of an aqueous suspension or emulsion at a water application rate equating to […], with addition of 0.2% wetting agent. After the treatment, the pots are placed in a greenhouse and kept under good growth conditions for the trial plants. The damage to the test plants is scored visually after a test period of 3 weeks by comparison with untreated controls (herbicidal activity in percent (%): 100% activity=the plants have died, 0% activity=like control plants).
(§3) For comparison, the herbicidal activity of numerous compounds according to the invention was tested with the structurally closest compounds known from the documents WO 2011/035874, WO 2012/028579 and WO 2012/126932, by the pre- and post-emergence method.

Setaria viridis [5] = test: Pre-emergence herbicidal action, SETVI; assay type: in vivo
Summary of the method: as §1

Stellaria media [6] = test: Pre-emergence herbicidal action, STEME; assay type: in vivo
Summary of the method: as §1

Veronica persica = test: Pre-emergence herbicidal action, VERPE; assay type: in vivo; conditions: 80 g/ha, comparison with WO 2011035874, Table H
Excerpt: as §2, §3

Viola tricolor [7] = test: Pre-emergence herbicidal action, VIOTR; assay type: in vivo
Summary of the method: as §1

Abutilon theophrasti [8] = test: Post-emergence herbicidal action, ABUTH; assay type: in vivo; conditions: 80 g/ha
Summary of the method: (§4)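 Visual percent activity relative to untreated controls, assessed about 3 weeks after foliar treatment, where 0% equals control growth and 100% equals death. Compounds, as wettable powders or emulsion concentrates, are sprayed onto one-leaf-stage plants in sandy loam.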

Alopecurus myosuroides [9] = test: Post-emergence herbicidal action, ALOMY; assay type: in vivo
Summary of the method: as §4

Amaranthus retroflexus [10] = test: Post-emergence herbicidal action, AMARE; assay type: in vivo; conditions: 80 g/ha, Table D
Summary of the method: as §4

Avena fatua [11] = test: Post-emergence herbicidal action, AVEFA; assay type: in vivo
Summary of the method: as §4

Pharbitis purpureum = test: Post-emergence herbicidal action, PHBPU; assay type: in vivo; conditions: 80 g/ha, Table D
Summary of the method: as §4

Setaria viridis [12] = test: Post-emergence herbicidal action, SETVI; assay type: in vivo
Summary of the method: as §4

Stellaria media [13] = test: Post-emergence herbicidal action, STEME; assay type: in vivo
Summary of the method: as §4

Viola tricolor [14] = test: Post-emergence herbicidal action, VIOTR; assay type: in vivo
Summary of the method: as §4

ECHCG [15] = test: Post-emergence herbicidal action, ECHCG; assay type: in vivo; conditions: 80 g/ha, Table C
Summary of the method: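 Weed and crop plants grown in sandy loam in the greenhouse, treated at the one-leaf stage 2–3 weeks after sowing. Damage scored visually after about 3 weeks vs untreated controls (0% = control, 100% = dead).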

ECHCG [16] = test: Pre-emergence herbicidal action, ECHCG; assay type: in vivo, Echinochloa crus-galli
ECHCG [17] = test: Pre-emergence herbicidal action, ECHCG; assay type: in vivo; conditions: 80 g/ha, comparison with WO 2011035874, Table G
Excerpt: as §2

[18] = 80 g/ha, comparison with WO 2011035874, Table G
[19] = dosage 320 g/ha, scored visually after 3 weeks vs untreated controls
[20] = 80 g/ha, comparison with WO 2011035874, Table H

Cn1nnnc1NC(=O)c1ccc(C(F)F)c(S(C)(=O)=O)c1Cl [Example 1-51]
Herbicidal efficacy against ABUTH (Abutilon theophrasti [1]; [18]): 100% | Herbicidal efficacy against ABUTH (Abutilon theophrasti [1]; dosage 20 g/ha, Table K): 100 | Herbicidal efficacy against ABUTH (Abutilon theophrasti [1]; dosage 80 g/ha, Table K): 100 | Herbicidal efficacy against ABUTH (Abutilon theophrasti [1]; dosage 320 g/ha, Table K): 100 | herbicidal activity ABUTH (Abutilon theophrasti [1]; [19]): 100% | Herbicidal efficacy against ALOMY (Alopecurus myosuroides [2]; 20 g/ha): 80 | Herbicidal efficacy against ALOMY (Alopecurus myosuroides [2]; 80 g/ha): 100 | Herbicidal efficacy against ALOMY (Alopecurus myosuroides [2]; [18]): 10% | Herbicidal efficacy against ALOMY (Alopecurus myosuroides [2]; 320 g/ha): 100 | herbicidal activity ALOMY (Alopecurus myosuroides [2]; [19]): 100% | Herbicidal efficacy against AMARE (Amaranthus retroflexus [3]; [20]): 100% | herbicidal activity AMARE (Amaranthus retroflexus [3]; [19]): 100% | Herbicidal efficacy against AVEFA (Avena fatua [4]; 80 g/ha): 90 | Herbicidal efficacy against AVEFA (Avena fatua [4]; [18]): 0% | Herbicidal efficacy against AVEFA (Avena fatua [4]; 320 g/ha): 100 | herbicidal activity AVEFA (Avena fatua [4]; [19]): 100% | Herbicidal efficacy against CYPES (Cyperus serotinus; 20 g/ha): 90 | Herbicidal efficacy against CYPES (Cyperus serotinus; 80 g/ha): 90 | Herbicidal efficacy against CYPES (Cyperus serotinus; [18]): 0% | Herbicidal efficacy against CYPES (Cyperus serotinus; 320 g/ha): 100 | herbicidal activity CYPES (Cyperus serotinus; [19]): 100% | Herbicidal efficacy against MATIN (Matricaria inodora; dosage 20 g/ha): 90 | Herbicidal efficacy against MATIN (Matricaria inodora; dosage 80 g/ha): 100 | Herbicidal efficacy against MATIN (Matricaria inodora; dosage 320 g/ha): 100 | herbicidal activity MATIN (Matricaria inodora; [19]): 100% | Herbicidal efficacy against POLCO (Polygonum convolvulus; [20]): 0% | Herbicidal efficacy against POLCO (Polygonum convolvulus; dosage 20 g/ha, Table K): 30 | Herbicidal efficacy against POLCO (Polygonum convolvulus; dosage 80 g/ha, Table K): 80 | Herbicidal efficacy against POLCO (Polygonum convolvulus; dosage 320 g/ha, Table K): 90 | Herbicidal efficacy against SETVI (Setaria viridis [5]; 20 g/ha): 100 | Herbicidal efficacy against SETVI (Setaria viridis [5]; 80 g/ha): 100 | Herbicidal efficacy against SETVI (Setaria viridis [5]; [18]): 60% | Herbicidal efficacy against SETVI (Setaria viridis [5]; 320 g/ha): 100 | herbicidal activity SETVI (Setaria viridis [5]; [19]): 100% | Herbicidal efficacy against STEME (Stellaria media [6]; [20]): 90% | Herbicidal activity STEME (Stellaria media [6]; [19]): 100% | Herbicidal efficacy against VERPE (Veronica persica): 100% | Herbicidal efficacy against VIOTR (Viola tricolor [7]; [20]): 60% | Herbicidal efficacy against VIOTR (Viola tricolor [7]; dosage 20 g/ha, Table K): 100 | Herbicidal efficacy against VIOTR (Viola tricolor [7]; dosage 80 g/ha, Table K): 100 | Herbicidal efficacy against VIOTR (Viola tricolor [7]; dosage 320 g/ha, Table K): 100 | herbicidal activity VIOTR (Viola tricolor [7]; [19]): 100% | herbicidal activity ABUTH (Abutilon theophrasti [8]; Table D): 100% | Herbicidal efficacy against ABUTH (Abutilon theophrasti [8]; comparison with WO2011035874, Table F): 80% | Herbicidal efficacy against ALOMY (Alopecurus myosuroides [9]; 5 g/ha): 40 | Herbicidal efficacy against ALOMY (Alopecurus myosuroides [9]; 20 g/ha): 90 | Herbicidal efficacy against ALOMY (Alopecurus myosuroides [9]; 80 g/ha): 100 | herbicidal activity ALOMY (Alopecurus myosuroides [9]; 80 g/ha, Table C): 100% | herbicidal activity AMARE (Amaranthus retroflexus [10]): 100% | Herbicidal efficacy against AVEFA (Avena fatua [11]; 5 g/ha): 60 | Herbicidal efficacy against AVEFA (Avena fatua [11]; 20 g/ha): 90 | Herbicidal efficacy against AVEFA (Avena fatua [11]; 80 g/ha): 100 | herbicidal activity AVEFA (Avena fatua [11]; 80 g/ha, Table C): 100% | Herbicidal activity PHBPU (Pharbitis purpureum): 100% | Herbicidal efficacy against SETVI (Setaria viridis [12]; 5 g/ha): 90 | Herbicidal efficacy against SETVI (Setaria viridis [12]; 20 g/ha): 100 | Herbicidal efficacy against SETVI (Setaria viridis [12]; 80 g/ha): 100 | herbicidal activity SETVI (Setaria viridis [12]; 80 g/ha, Table C): 100% | Herbicidal efficacy against STEME (Stellaria media [13]; 5 g/ha): 100 | Herbicidal efficacy against STEME (Stellaria media [13]; 20 g/ha): 100 | Herbicidal efficacy against STEME (Stellaria media [13]; 80 g/ha): 100 | Herbicidal activity STEME (Stellaria media [13]; 80 g/ha, Table D): 100% | Herbicidal efficacy against STEME (Stellaria media [13]; 80 g/ha, comparison with WO2011035874, Table F): 40% | Herbicidal efficacy against VIOTR (Viola tricolor [14]; 5 g/ha): 100 | Herbicidal efficacy against VIOTR (Viola tricolor [14]; 20 g/ha): 100 | Herbicidal efficacy against VIOTR (Viola tricolor [14]; 80 g/ha): 100 | herbicidal activity VIOTR (Viola tricolor [14]; 80 g/ha, Table D): 100% | Herbicidal activity ECHCG (ECHCG [15]): 100% | Herbicidal efficacy against ECHCG (ECHCG [16]; 20 g/ha): 100 | Herbicidal efficacy against ECHCG (ECHCG [16]; 80 g/ha): 100 | Herbicidal efficacy against ECHCG (ECHCG [16]; 320 g/ha): 100 | Herbicidal efficacy against ECHCG (ECHCG [17]): 30%
